# Measurements: PubChem BioAssay AID1963846 (Molecular Pharmacology Branch, DTP, NCI, 2024)
# Several values for one entry are separate records, joined by “and”; a condition that tells them apart may be missing. Equal values may be shown once.
# System: 454973-116-R2-J3-PDC complex spheroid viability
# Assay: Anticancer human tumor 454973-116-R2-J3-PDC patient-derived pancreatic carcinoma cell line growth inhibition [POLQ]
# Settings: for viability, T/C: stronger effect = lower value
# Description: Multicellular complex tumor spheroid response to Polymerase (POL) inhibitors (novobiocin, ART-558, RP6685) in combination with a variety of drugs and investigational agents in selected tumor cell lines
# The POL inhibitors (novobiocin, ART-558, and RP6685) were evaluated both individually and in combination with standard of care and investigational anticancer small molecules within a complex spheroid model of solid tumors. . Complex spheroids include a stromal component modeled by human endothelial cells (HUVEC) and fibroblasts modeled by human mesenchymal stem cells (MSCs). The concentration ranges selected for each drug and investigational agent were based upon clinically achievable concentrations if the clinical Cmax of the agent was known.
# Compounds. The drugs and investigational agents: novobiocin (NSC847541), ART-558 (NSC835418), RP-6685 (NSC848927), peposertib (NSC802822), ceralasertib (NSC780249), elimusertib (NSC800525), camonsertib (NSC841442), AZD-1390 (NSC803789), olaparib (NSC753686), talazoparib (NSC767125), rucaparib (NSC756644), sotorasib (NSC818433), MRTX-1133 (NSC836407), SN-38 (NSC673596), topotecan (NSC609699), epotoside (NSC141540), doxorubicin (NSC123127), gemcitabine (NSC613327), 5-fluorouracil (NSC19893), paclitaxel (NSC125973), vemurafenib (NSC761431), MSA-2 (NSC828583), SN-011 (NSC837082), adavosertib (NSC754352), prexasertib (NSC758257), carboplatin (NSC241240) and oxaliplatin (NSC266046), were obtained from the National Cancer Institute (NCI) Developmental Therapeutics Program Chemical Repository (21). The FDA-approved anticancer drug set is available from the Developmental Therapeutics Program at https://dtp.cancer.gov/organization/dscb/obtaining/. […] The stock solutions were prepared in dimethyl sulfoxide (DMSO, Sigma-Aldrich, St. Louis, MO, cat. D2650), except for the platinum compounds which were prepared in saline (Quality Biological, Gaithersburg, MD, cat. 114-055-101), at 800-fold the tested concentration and stored at -70 degrees C prior to their use. All drugs and investigational agents were tested over a range starting from a high concentration at or near the clinical Cmax and decreasing in half-log increments. If the clinical Cmax for an agent had not been determined, the highest concentration tested was 10 microM, except for SN-38, which was tested at a high concentration of 1 microM.
# Cell Culture. All cells were maintained in an incubator at 37 degrees C and 5% CO2 with 95% humidity. The PDC lines were cultured according to standard operating procedures established by the NCI PDMR (https://pdmr.cancer.gov). Table 3 of the manuscript, lists the cell lines along with the number of the three cell types plated to form the mct-spheroids and media for tumor cell growth. After thawing, all PDC lines, except 997537-175-T-J1-PDC and 415267-285-R-J2-PDC, were cultured in Matrigel-coated flasks prepared with a working solution of 1X Ham's F-12 nutrient mix, without supplementation (Thermo Fisher Scientific, cat. 11765054), 100 U/mL penicillin-streptomycin (Thermo Fisher Scientific, cat. 15140122), and 2.5% Matrigel (Corning Inc., Corning, NY, cat. 354248) for the first three passages. The two PDC lines 997537-175-T-J1-PDC and 415267-285-R-J2-PDC were cultured on uncoated flasks. The 857933-349-R-J2-PDC line was cultured in 6C/Colon 1B media containing advanced DMEM/F-12 (Thermo Fisher Scientific, cat. 12634028), 10 mM HEPES (Thermo Fisher Scientific, cat. 15630080), 1X GlutaMAX supplement (Thermo Fisher Scientific, cat. 35050061), 0.1 mg/mL primocin (InvivoGen, San Diego, CA, cat. ant-pm-2), 10% defined fetal bovine serum, heat inactivated (HyClone Laboratories Inc., Logan, UT, cat. SH30070.03HI), 50% L-WRN conditioned media (ATCC, cat. CRL-3276), 1.25 mM N-Acetyl-L-cysteine (Sigma-Aldrich, cat. A9165), 10 mM nicotinamide (Sigma-Aldrich, cat. N0636), 1X B-27 supplement (Thermo Fisher Scientific, cat. 17504044), 1X N-2 supplement (Thermo Fisher Scientific, cat. […]
# 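Also: spheroids exposed to drugs for seven days before measurement.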
# 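For viability, T/C in this document: percent viability relative to DMSO vehicle control wells taken as 100%.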
smiles,measurement,setting,value
Cn1ncnc1[C@H]1c2n[nH]c(=O)c3cc(F)cc(c23)N[C@@H]1c1ccc(F)cc1,"viability, T/C",compound 0.000316 µM,112% and 102% (2×)
same,"viability, T/C",compound 0.001 µM,91.7% and 103% and 104%
same,"viability, T/C",compound 0.00316 µM,92.2% and 107% and 93.9%
same,"viability, T/C",compound 0.01 µM,95.1% and 86.6% and 101%
same,"viability, T/C",compound 0.0316 µM,111% and 86.4% and 102%
same,"viability, T/C",compound 0.1 µM,89.9% and 81.5% and 91.9%
same,IC50,curve of compound,> 100 nM
CC1COCCN1c1cc(C2(O)CC3CCC(C2)O3)c2cnn(-c3ccn[nH]3)c2n1 (stereo not drawn),"viability, T/C",compound 0.0316 µM,100% and 99.2% and 87.4%
same,"viability, T/C",compound 0.1 µM,71.6% and 69.7% and 51.4%
same,"viability, T/C",compound 0.316 µM,29.2% and 34.4% and 21.1%
same,"viability, T/C",compound 1 µM,24.1% and 25.3% and 11.3%
same,"viability, T/C",compound 3.16 µM,23.8% and 24.9% and 15.1%
same,"viability, T/C",compound 10 µM,14.6% and 14.2% and 9.62%
same,IC50,curve of compound,181 nM and 194 nM and 106 nM
COc1cccc(OCCCN)c1-c1cc(Nc2cnc(C#N)cn2)n[nH]1,"viability, T/C",compound 0.00316 µM,99.7% (2×) and 101%
same,"viability, T/C",compound 0.01 µM,70.4% and 75.3% and 73%
same,"viability, T/C",compound 0.0316 µM,7.56% and 10.8% and 14.6%
same,"viability, T/C",compound 0.1 µM,5.87% and 6.45% and 6.4%
same,"viability, T/C",compound 0.316 µM,4.59% and 5.13% and 4.47%
same,"viability, T/C",compound 1 µM,4.4% and 5.18% and 4.15%
same,IC50,curve of compound,14.5 nM and 15.7 nM and 15.8 nM
CCc1c2c(nc3ccc(O)cc13)-c1cc3c(c(=O)n1C2)COC(=O)[C@]3(O)CC + Nc1ccc(C#CCN(C(=O)Cc2ncc(C(F)(F)F)cc2C(F)(F)F)c2ccc(F)cc2)nn1,IC50,"curve of first compound, second compound 0.0316 µM",< 3.16 nM
same,IC50,"curve of first compound, second compound 0.1 µM",< 3.16 nM
same,IC50,"curve of first compound, second compound 0.316 µM",< 3.16 nM
same,IC50,"curve of first compound, second compound 1 µM",< 3.16 nM
same,IC50,"curve of first compound, second compound 3.16 µM",< 3.16 nM
same,IC50,"curve of first compound, second compound 10 µM",< 3.16 nM
same,"viability, T/C","second compound 0.0316 µM, first compound 0.00316 µM",25.3%
same,"viability, T/C","second compound 0.0316 µM, first compound 0.01 µM",11.3%
same,"viability, T/C","second compound 0.0316 µM, first compound 0.0316 µM",6.56%
same,"viability, T/C","second compound 0.0316 µM, first compound 0.1 µM",4.56%
same,"viability, T/C","second compound 0.0316 µM, first compound 0.316 µM",1.97%
same,"viability, T/C","second compound 0.0316 µM, first compound 1 µM",1.11%
same,"viability, T/C","second compound 0.1 µM, first compound 0.00316 µM",19%
same,"viability, T/C","second compound 0.1 µM, first compound 0.01 µM",10.4%
same,"viability, T/C","second compound 0.1 µM, first compound 0.0316 µM",6.53%
same,"viability, T/C","second compound 0.1 µM, first compound 0.1 µM",3.88%
same,"viability, T/C","second compound 0.1 µM, first compound 0.316 µM",2.75%
same,"viability, T/C","second compound 0.1 µM, first compound 1 µM",1%
same,"viability, T/C","second compound 0.316 µM, first compound 0.00316 µM",19.8%
same,"viability, T/C","second compound 0.316 µM, first compound 0.01 µM",11.3%
same,"viability, T/C","second compound 0.316 µM, first compound 0.0316 µM",8.55%
same,"viability, T/C","second compound 0.316 µM, first compound 0.1 µM",4.38%
same,"viability, T/C","second compound 0.316 µM, first compound 0.316 µM",2.3%
same,"viability, T/C","second compound 0.316 µM, first compound 1 µM",0.79%
same,"viability, T/C","second compound 1 µM, first compound 0.00316 µM",21.4%
same,"viability, T/C","second compound 1 µM, first compound 0.01 µM",8.67%
same,"viability, T/C","second compound 1 µM, first compound 0.0316 µM",6.81%
same,"viability, T/C","second compound 1 µM, first compound 0.1 µM",3.42%
same,"viability, T/C","second compound 1 µM, first compound 0.316 µM",1.98%
same,"viability, T/C","second compound 1 µM, first compound 1 µM",0.59%
same,"viability, T/C","second compound 3.16 µM, first compound 0.00316 µM",18.6%
same,"viability, T/C","second compound 3.16 µM, first compound 0.01 µM",9.44%
same,"viability, T/C","second compound 3.16 µM, first compound 0.0316 µM",7.09%
same,"viability, T/C","second compound 3.16 µM, first compound 0.1 µM",4.06%
same,"viability, T/C","second compound 3.16 µM, first compound 0.316 µM",2.05%
same,"viability, T/C","second compound 3.16 µM, first compound 1 µM",0.6%
same,"viability, T/C","second compound 10 µM, first compound 0.00316 µM",19%
same,"viability, T/C","second compound 10 µM, first compound 0.01 µM",10.2%
same,"viability, T/C","second compound 10 µM, first compound 0.0316 µM",5.83%
same,"viability, T/C","second compound 10 µM, first compound 0.1 µM",2.67%
same,"viability, T/C","second compound 10 µM, first compound 0.316 µM",1.43%
same,"viability, T/C","second compound 10 µM, first compound 1 µM",0.54%
